Assays:
[1] = tested on: pupil size; test: Mydriatic action in rats; format: in vivo, male Wistar strain rats; settings: for Percent mydriasis: one hour after administration, 3 mm dilation = 100 percent
Description: [IV] Mydriatic action in rats:
Male Wistar strain rats (weighing, 150-200 g) were used. Pupil size of the animals was twice measured microscopically just before and one hour after administration of drugs at a distance of 30 cm from the source of a constant light (30 W fluorescent light) according to the method of Pulewka [cf. Arch. exp. Path. U. Pharmakol., 168, 307 (1932)]. Based on the change between the first measured pupil size and the second measured pupil size, mydriasis percentage was calculated provided that mydriasis percentage is supposed to be 100 percent in case of 3 mm dilation of pupil size in diameter. Drugs to be tested were suspended in 0.5% tragacanth solution and administered. In the control group, a vehicle (0.5% tragacanth solution) was administered.

[2] = Toxicological study, LD50 rat; settings: in vivo, po, Rat (SD strain)
Description: (§1) Further, the toxicological study was conducted according to the conventional method on Compound B. The results are shown in Table 5.

[3] = Toxicological study, LD50 mouse; settings: in vivo, po, Mouse (ICR strain)
Description: as §1

[4] = tested on: ulceration induced by exposure to stress (restraint and water immersion); test: Effect on the ulceration induced by exposure to stress (restraint and water immersion); format: in vivo, male Wistar strain rats; settings: ulcer index = sum of length (mm) of lesions
Description: [I] Effect on the ulceration induced by exposure to stress (restraint and water immersion): Male Wistar strain rats (weighing, about 200 g) were placed in a stress cage which served to immobilize the animals therein and then immersed in a water bath of 23° C. to the height of xiphoid of the animals according to the method of Takagi et al. [cf. Takagi, K. and Okabe, S., Japan. J. Pharmacol., 18, 9 (1968)]. After 20 hours, the animals were sacrificed and the stomach was removed. The stomach was inflated with 13 ml of saline and placed in 5% formalin solution for 5 minutes. After washing with saline, the stomach was cut open along the greater curvature and the length (mm) of each lesion in the glandular portion was measured using a dissecting microscope (×12). The sum of the length (mm) of each lesions in a stomach was indicated as an ulcer index. In case of reference experiment using butylscopolamine bromide, a photograph of the mucosal surface of stomach was taken after the stomach was treated in the same manner as described above. The photograph was magnified by nine times, and the sum of the area (mm^2) of each lesions in a stomach was indicated as an ulcer index. The ulcer index in drug treated groups was compared with that in control group, and thereby, inhibitory percentage was calculated and then ED50 value, i.e., the dose required for 50% inhibition of the ulcer index, was determined by the usual graphic method. Drugs to be tested were suspended in 0.5% tragacanth solution and administered orally 30 minutes before the immersion. In the control group, a vehicle (0.5% tragacanth solution) was administered.

[5] = tested on: ulceration induced by pylorus-ligation; test: Effect on the ulceration induced by pylorus-ligation in rats; format: in vivo, male Wistar strain rats
Description: [II] Effect on the ulceration induced by pylorus-ligation in rats: Male Wistar strain rats (weighing about 190 g) were fasted for 48 hours before experiment. The pylorus of each rat was ligated under ether anaesthesia according to the method of Shay et al. [cf. Shay, H., et al., Gastroenterology, 5, 43-61 (1945)]. Each of the animals was then allowed to stand abstained from food and water in a cage. After 18 hours, the animals were sacrificed under ether anaesthesia, and the stomachs were removed and cut open along the greater curvature. […] 4: marked ulcers more than two 5: perforated ulcer The ulcer index in drug treated groups was compared to that in the control group, and thereby, the inhibitory percentage was calculated and then ED50, i.e. the dose required for 50% inhibition of ulcer index, was determined by the usual graphic method. Drugs to be tested were suspended in 0.5% tragacanth solution and administered 30 minutes before the ligation. In the control group, a vehicle (0.5% tragacanth solution) was administered.

[6] = tested on: gastric secretion; test: Effect on gastric secretion in rats (pylorus ligation, total acid content); format: in vivo, male Wistar strain rats
Description: [III] Effect on gastric secretion in rats: Male Wistar strain rats (weighing, about 200 g) were fasted for 24 hours before experiment. The pylorus was ligated under ether anaesthesia. Four hours after the ligation, the stomach was removed under ether anaesthesia. The gastric content was collected and centrifuged, and the secretory volume, pH and acid content of the supernatant were measured. The acid content was measured by titrating to pH 7.0 with 0.02N NaOH using pH meter (Hitachi Horiba, M-5). The total acid content of the drug treated groups was compared with that of the control group, and thereby, the reduction percentage of acid content was calculated and then ED50, i.e. the dose required for 50% reduction of acid content, was determined by the usual graphic method. Drugs to be tested were suspended in 0.5% tragacanth solution and administered orally 30 minutes before the ligation. In the control group, a vehicle (0.5% tragacanth solution) was administered.

[7] = tested on: brain noradrenaline turnover; settings: U.S. Pat. No. 4,237,135 and U.K. Pat. No. 2,017,698; cited from earlier work
[8] = tested on: mouse-killing behavior of olfactory bulb-ablated rats; settings: U.S. Pat. No. 4,237,135 and U.K. Pat. No. 2,017,698; cited from earlier work
[9] = U.S. Pat. No. 4,237,135 and U.K. Pat. No. 2,017,698; cited from earlier work
[10] = Conversion after oral administration; format: in vivo; settings: orally administered
[11] = U.S. Pat. No. 4,237,135 and U.K. Pat. No. 2,017,698; cited from earlier work; remark: listed apart in the source
[12] = U.S. Pat. No. 4,237,135 and U.K. Pat. No. 2,017,698; cited from earlier work; remark: listed apart in the source

In the case of `CCN1CCN(c2cc(-c3ccccc3)c3ccccc3n2)CC1.O=C(O)/C=C\C(=O)O.O=C(O)/C=C\C(=O)O` [Compound B, 2-(4-ethyl-1-piperazinyl)-4-phenylquinoline dimaleate], the Percent mydriasis ([1]; 5 mg/kg p.o.) is reported as 0%, the Percent mydriasis ([1]; 10 mg/kg p.o.) is reported as 2.7% and the Percent mydriasis ([1]; 20 mg/kg p.o.) is reported as 4.7%. The Percent mydriasis ([1]; 50 mg/kg p.o.) was 2.0%, the Percent mydriasis ([1]; 100 mg/kg p.o.) was 2.7% and the “mydriatic action (in words)” value ([1]; rats, up to 100 mg/kg) was “did entirely not show any mydriatic action even in a dose of 100 mg/kg”. For the same molecule, the LD50 [2] was ~3600 mg/kg, the LD50 [3] was ~1200 mg/kg and the “Ulcer index Inhibitory %” value ([4]; 1 mg/kg p.o.) was 44.5%. For the same molecule, the “Ulcer index Inhibitory %” value ([4]; 2 mg/kg p.o.) was 66.6%, the “Ulcer index Inhibitory %” value ([4]; 5 mg/kg p.o.) was 90.1% and the ED50 ([4]; Rattus norvegicus, po, 30 minutes before immersion, rats, read-out: ED50 (dose required for 50% inhibition of the ulcer index)) was 1.2 mg/kg. The “Ulcer index Inhibitory %” value ([5]; 5 mg/kg p.o.) was 0%, the “Ulcer index Inhibitory %” value ([5]; 10 mg/kg p.o.) was 28.6% and the “Ulcer index Inhibitory %” value ([5]; 20 mg/kg p.o.) was 57.1%. For the same molecule, the “Ulcer index Inhibitory %” value ([5]; 50 mg/kg p.o.) was 78.6%, the ED50 ([5]; Rattus norvegicus, po, 30 minutes before ligation, rats, 18 hours, ulcer index 0 to 5, read-out: ED50 (dose required for 50% inhibition of ulcer index)) was 19 mg/kg and the “Total acid content Reduction %” value ([6]; 0.5 mg/kg p.o.) was 27.8%. The “Total acid content Reduction %” value ([6]; 1 mg/kg p.o.) was 24.0%, the “Total acid content Reduction %” value ([6]; 2 mg/kg p.o.) was 47.8% and the “Total acid content Reduction %” value ([6]; 5 mg/kg p.o.) was 60.2%. The ED50 ([6]; Rattus norvegicus, po, 30 minutes before ligation, rats, 4 hours after ligation, read-out: ED50 (dose required for 50% reduction of acid content)) was 2.8 mg/kg.
For `CCN1CCN(c2cc(-c3ccccc3)c3ccccc3n2)CC1` [2-(4-ethyl-1-piperazinyl)-4-phenylquinoline], the “inhibition of brain noradrenaline turnover” value [7] is given as “inhibition of brain noradrenaline turnover”, the “suppression of mouse-killing behavior of olfactory bulb-ablated rats” value [8] is given as “suppression of mouse-killing behavior of olfactory bulb-ablated rats” and the anti-reserpine activity [9] is given as “showed anti-reserpine activity”. The “conversion on oral administration” value [10] was “partially converted into 2-(1-piperazinyl)-4-phenylquinoline”, the anti-tremorine activity [11] was “has also anti-tremorine activity” and the anti-tetrabenazine activity [12] was “anti-tetrabenazine activity”.
